Entries after “also recorded” stand apart in the source; their conditions may differ.
Experiments:
MCF10A cells [1] = test: Immunofluorescent staining for E-cadherin (cell-cell junctions); format: cell-based, Human; details: 4 mM EGTA vs untreated
MCF10A cells [2] = test: Collective cell migration assay on modular polyacrylamide (mPA) dual-stiffness substrate; format: cell-based, Human
Procedure: Human mammary epithelial non-tumorigenic MCF10A cells were cultured in DMEM-F12 (GE Healthcare Life Sciences), supplemented with 5% horse serum (Invitrogen), 20 ng/mL epidermal growth factor (EGF, Miltenyi Biotec Inc), […] hydrocortisone (Sigma-Aldrich), 100 ng/mL cholera toxin (Sigma-Aldrich), 10 μg/mL insulin (Sigma-Aldrich), and 1% (v/v) penicillin-streptomycin (Sigma-Aldrich). Tumorigenic mammary epithelial MCF7 cells were grown in DMEM (Sigma-Aldrich) containing 10% fetal bovine serum (FBS), 1% (v/v) penicillin-streptomycin (Sigma-Aldrich), and 1% non-essential amino acids (0.1 mM). Human epidermoid carcinoma A431 cells were grown in DMEM (Sigma-Aldrich) containing 10% fetal bovine serum (FBS), 1% (v/v) penicillin-streptomycin (Sigma-Aldrich), 1% sodium pyruvate (Sigma-Aldrich), 1% sodium bicarbonate (Sigma-Aldrich), and 1% non-essential amino acids (0.1 mM). A PDMS stencil was designed and fabricated with a rectangular opening in the center, restricting the culture of epithelial monolayer within the central module (primary ECM) of mPA substrate (see e.g., FIG. 13A). PDMS stencils were air-dried, cleaned with 70% ethanol, and sterilized under UV light for 2 h. Afterwards, stencils were passivated overnight, with a sterile solution of 1% Pluronic and 1% Bovine serum albumin (BSA) in Phosphate buffered saline (PBS) to avoid cell adhesion, and carefully positioned on the PA gels. Cell suspension with 2×10^4 cells was dispensed into the PDMS reservoir covering the primary ECM region and left to grow for a prescribed duration of priming (1, 2, or 3 days) at 37° C. in a 5% CO2 humidified incubator. After this incubation period, the PDMS stencil was lifted off to allow cell sheet to migrate into the adjoining secondary ECM. Additional media was added to each well. For proliferation inhibition experiments, cells were treated with 2 mM thymidine (Sigma-Aldrich) after at least 6 h of cell seeding, to allow adequate attachment of cells to the substrate. For calcium chelation experiments, cells were incubated with 4 mM of EGTA (Sigma-Aldrich) after 3-day priming. […] Subsequently, coordinates of the leading edge were imported into a custom-made program in MATLAB and its advancement was calculated by averaging the distance of each point on the leading edge from the primary-secondary ECM interface. […] Cell migration tracks were subsequently analyzed to obtain migration speed and velocity angle distribution. Migration speed was calculated as a ratio between the sum of distances traveled by the cell between each time point and the total time. For each time interval, the angle between instantaneous velocity vector and the x axis was calculated and plotted the angle distribution for the entire migration tracking period.

SMILES	cell-cell communication / cell-cell junctions (E-cadherin images) (MCF10A cells [1])	memory-dependent migration of the leading edge (MCF10A cells [2]; MCF10A monolayer, 4 mM EGTA after 3-day priming)	trend of mechanical memory-dependent migration (MCF10A cells [2]; MCF10A monolayer, 2 mM thymidine (proliferation inhibition))	cell migration speeds (leading edge) (MCF10A cells [2]; MCF10A monolayer, 2 mM thymidine (proliferation inhibition), secondary ECM after priming, vs untreated cells)	cell spreading (spreading area of individual cells in the secondary ECM) (MCF10A cells [2]; MCF10A, 2 mM thymidine, with vs without proliferation inhibition)
O=C(O)CN(CCOCCOCCN(CC(=O)O)CC(=O)O)CC(=O)O [EGTA]	disrupts cell-cell communication; also recorded: dysfunctional cell-cell junctions	preserved			
Cc1cn([C@H]2C[C@H](O)[C@@H](CO)O2)c(=O)[nH]c1=O [thymidine]			held true	increased	increased spreading
